In patent US20230373929A1, “FUSED RING DIIMIDE DERIVATIVE, PREPARATION METHOD AND USE THEREOF” (XIANGBEI WELMAN PHARMACEUTICAL CO., LTD., priority 2020, published 2023):
Read-outs that look alike come from different tables or passages of the source.

Key:
[1] = test system: human leukemia cells HL-60; assay: anti-proliferative activity against tumor cells, resazurin assay, HL-60; format: cell-based; details: read-out: IC50 Grades of Inhibitory Effects of Compounds on Tumor Cells, HL-60
Experimental: (§1) Objective: To test the anti-proliferative activity of the compound of the present disclosure against various tumor cells.
(§2) Test cells: human colon cancer cells (HT-29, COLO 205), human lung cancer cells (NCI-H460, A549) and human leukemia cells (HL-60, U-937).
(§3) Test method: each tumor cell was tested separately. Cells were incubated in medium at […] for 24 hours before use. The cells growing in an exponential growth phase were harvested and treated with trypsin to prepare a cell suspension, the cell suspension was centrifuged, then the cell pellet was resuspended in a small amount of fresh medium as a cell stock. The cell stock was diluted to required cell concentrations.
(§4) The test was carried out on 96-well plates; blank control groups, cell control groups and compound treatment groups were set up. In the blank control groups, only 10% PBS was added to each well, while in the cell control groups and the compound treatment groups, 100 μL of cells at the above concentration were added to each well, and then each well was filled with 200 μL of 10% PBS. The plates were placed in an incubator overnight. In the compound treatment groups, 100 μL of each test compound at different dilution concentrations was added to each well, the dilution concentrations of the compounds are as shown in Table 2.
(§5) After the addition of the drug to each well was completed, the plates were cultured in an incubator for 96 hours, 22 μL of resazurin sodium solution (Alarm blue, SIGMA R7017) was added to each well. The plates were returned to the incubator for another 4 hours of incubation and then shaken for 10 seconds after being taken out. The fluorescence value of each well were recorded at 530/590 nm.
(§6) The above operations were repeated three times.
(§7) The IC50 value of each test compound was calculated by Prism7 software. IC50 was divided into different grades according to values, that is, SS: <1 μM; S: 1-5 μM; A: 5-10 μM; B: 11-20 μM; C: 21-50 μM; D: 51-100 μM; E: >100 μM.

[2] = test system: human colon cancer cells HT-29; assay: anti-proliferative activity against tumor cells, resazurin (Alamar blue) assay, HT-29; format: cell-based; details: read-out: IC50 Grades of Inhibitory Effects of Compounds on Tumor Cells, HT-29
Experimental: as §1, §2, §3, §4, §5, §6, §7

[3] = test system: human lung cancer cells NCI-H460; assay: anti-proliferative activity against tumor cells, resazurin assay, NCI-H460; format: cell-based; details: read-out: IC50 Grades of Inhibitory Effects of Compounds on Tumor Cells, NCI-H460
Experimental: as §1, §2, §3, §4, §5, §6, §7

[4] = test system: human lung cancer cells A549; assay: anti-proliferative activity against tumor cells, resazurin assay, A549; format: cell-based; details: read-out: IC50 Grades of Inhibitory Effects of Compounds on Tumor Cells, A549
Experimental: as §1, §2, §3, §4, §5, §6, §7

[5] = test system: human leukemia cells U-937; assay: anti-proliferative activity against tumor cells, resazurin assay, U-937; format: cell-based; details: read-out: IC50 Grades of Inhibitory Effects of Compounds on Tumor Cells, U-937
Experimental: as §1, §2, §3, §4, §5, §6, §7

[6] = test system: human colon cancer cells COLO 205; assay: anti-proliferative activity against tumor cells, resazurin assay, COLO 205; format: cell-based; details: read-out: IC50 Grades of Inhibitory Effects of Compounds on Tumor Cells, COLO205
Experimental: as §1, §2, §3, §4, §5, §6, §7

tumor cells = assay: anti-proliferative activity, overall comparison over all tumor cells; format: cell-based, human; details: all tested tumor cells, under the test condition of the present disclosure
Experimental: as §1, §2, §3
(§8) The test was carried out on 96-well plates; blank control groups, cell control groups and compound treatment groups were set up. In the blank control groups, only 10% PBS was added to each well, while in the cell control groups and the compound treatment groups, 100 μL of cells at the above concentration were added to each well, and then each well was filled with 200 μL of 10% PBS. […]
(§9) After the addition of the drug to each well was completed, the plates were cultured in an incubator for 96 hours, 22 μL of resazurin sodium solution (Alarm blue, SIGMA R7017) was added to each well. […] The fluorescence value of each well were recorded at 530/590 nm.
(§10) The IC50 value of each test compound was calculated by Prism7 software. […]

colon cancer cells = assay: anti-proliferative activity, colon cancer cells; format: cell-based, human; details: versus similar compounds (Compound 1d, Compound 1)
Experimental: as §1, §2, §3, §8, §9, §10

[7] = Homo sapiens, HL-60, 96 hours culture, resazurin fluorescence 530/590 nm
[8] = Homo sapiens, HT-29, 96 hours culture, resazurin fluorescence 530/590 nm
[9] = Homo sapiens, NCI-H460, 96 hours culture, resazurin fluorescence 530/590 nm
[10] = Homo sapiens, A549, 96 hours culture, resazurin fluorescence 530/590 nm
[11] = Homo sapiens, U-937, 96 hours culture, resazurin fluorescence 530/590 nm
[12] = Homo sapiens, COLO 205, COLO205, 96 hours culture, resazurin fluorescence 530/590 nm

Row | SMILES | IC50 [1, 7] [µM] | IC50 [2, 8] [µM] | IC50 [3, 9] [µM] | IC50 [4, 10] [µM] | IC50 [5, 11] [µM] | IC50 [6, 12] [µM] | IC50 ([1]; Homo sapiens, HL-60, 96 h) [µM] | IC50 ([2]; Homo sapiens, HT-29, 96 h) [µM] | IC50 ([3]; Homo sapiens, NCI-H460, 96 h) [µM] | IC50 ([4]; Homo sapiens, A549, 96 h) [µM] | IC50 ([5]; Homo sapiens, U-937, 96 h) [µM] | IC50 ([6]; Homo sapiens, COLO 205, 96 h) [µM] | also measured
1 | CN(C)CCN1C(=O)c2cccc3cc(N)cc(c23)C1=O [Amonafide, reference compound] | 5 to 10 | 11 to 20 | 11 to 20 | 1 to 5 | 11 to 20 | 5 to 10 |  |  |  |  |  |  | 
2 | O=NN(CCCl)C(=O)NCCN1C(=O)c2cccc3cc([N+](=O)[O-])cc(c23)C1=O [Compound 1, reference compound] |  |  |  |  |  |  | 11 to 20 | 21 to 50 | 11 to 20 | 5 to 10 | 21 to 50 | 21 to 50 | overall anti-tumor activity, comparison in words (tumor cells): inferior to that of Amonafide
3 | COc1ccc2cc3c(cc2c1)C(=O)N(COCCN(OC)C(=O)N(C)C)C3=O [Compound I-08] | 5 to 10 | 11 to 20 | 5 to 10 | 5 to 10 | 5 to 10 | 5 to 10 |  |  |  |  |  |  | 
4 | O=NN(CCCl)C(=O)NCCNCCCCN1C(=O)c2cccc3cccc(c23)C1=O [Compound I-04] |  |  |  |  |  |  | 1 to 5 | < 1 | 5 to 10 | 5 to 10 | 1 to 5 | 1 to 5 | activity relative to that of similar compounds (colon cancer cells): 50 times
5 | O=C(NCCNCCCCN1C(=O)c2cccc3cccc(c23)C1=O)N(CCl)CCl [Compound I-01] |  |  |  |  |  |  | 5 to 10 | 1 to 5 | 5 to 10 | 1 to 5 | 1 to 5 | 1 to 5 | 
6 | CN(N=O)C(=O)NCCCCCCNCN1C(=O)c2cccc3c2c(cc2ccc(C#N)cc23)C1=O [Compound I-17] | 5 to 10 | 1 to 5 | 1 to 5 | 1 to 5 | 1 to 5 | 5 to 10 |  |  |  |  |  |  | 
7 | O=NN(CCCl)C(=O)NCNCCN1C(=O)c2cccc3cc([N+](=O)[O-])cc(c23)C1=O [Compound I-03] |  |  |  |  |  |  | 1 to 5 | 1 to 5 | 5 to 10 | 1 to 5 | 5 to 10 | < 1 | activity relative to that of similar compounds (colon cancer cells): 50 times
8 | CONC(=O)NCCN(CCCCN1C(=O)c2cccc3c2c(cc2ccoc23)C1=O)OC [Compound I-20] | 5 to 10 | 5 to 10 | 5 to 10 | 1 to 5 | 5 to 10 | 5 to 10 |  |  |  |  |  |  | 
9 | O=C(OCCOCCCCN1C(=O)c2cccc3cccc(c23)C1=O)N(CCl)CCl [Compound I-02] |  |  |  |  |  |  |  |  |  |  |  |  | IC50 ([1]; HL-60, 96 hours culture, resazurin fluorescence 530/590 nm): 5 to 10 µM; IC50 ([2]; HT-29, 96 hours culture, resazurin fluorescence 530/590 nm): 5 to 10 µM; IC50 ([3]; NCI-H460, 96 hours culture, resazurin fluorescence 530/590 nm): 5 to 10 µM; IC50 ([4]; A549, 96 hours culture, resazurin fluorescence 530/590 nm): 5 to 10 µM; IC50 ([5]; U-937, 96 hours culture, resazurin fluorescence 530/590 nm): 5 to 10 µM; IC50 ([6]; COLO205, 96 hours culture, resazurin fluorescence 530/590 nm): 5 to 10 µM
10 | O=NN(CCCl)C(=O)NCCCCN1C(=O)c2cccc3cccc(c23)C1=O [Compound 1d, reference compound] |  |  |  |  |  |  | 21 to 50 | 21 to 50 | 51 to 100 | 21 to 50 | 11 to 20 | 21 to 50 | overall anti-tumor activity, comparison in words (tumor cells): inferior to that of Amonafide
11 | CCN(C)C(=O)NCCN(CCN1C(=O)c2cccc3c2c(cc2ccccc23)C1=O)OC [Compound I-15] | 5 to 10 | 1 to 5 | 1 to 5 | 5 to 10 | 1 to 5 | 5 to 10 |  |  |  |  |  |  | 
12 | CCSC(=O)OCCCCOCN1C(=O)c2cccc3c(C)c4ccccc4c(c23)C1=O [Compound I-12] | 11 to 20 | 5 to 10 | 5 to 10 | 5 to 10 | 11 to 20 | 5 to 10 |  |  |  |  |  |  | 
13 | CC(C)(C)OC(=O)N1CCN(CCCN2C(=O)c3ccc4c5cccc6c(Br)ccc(c7ccc(c3c47)C2=O)c65)CC1 [Compound I-18] | 5 to 10 | 5 to 10 | 5 to 10 | 5 to 10 | 11 to 20 | 11 to 20 |  |  |  |  |  |  | 
14 | CN(C)C(=O)NCCN(CCCN1C(=O)c2cccc3cc4ccccc4c(c23)C1=O)[N+](=O)[O-] [Compound I-10] | 1 to 5 | 5 to 10 | 1 to 5 | 5 to 10 | 5 to 10 | 1 to 5 |  |  |  |  |  |  | 
15 | CON(C)C(=O)N(C)CCCCNCCN1C(=O)c2cccc3c(N(C)C)ccc(c23)C1=O [Compound I-05] | 5 to 10 | 1 to 5 | 5 to 10 | 5 to 10 | 5 to 10 | 1 to 5 |  |  |  |  |  |  | 
